Experimental data from US11427591B2, “Kinase inhibitors” (priority 2018, dated 2022).
Like-named read-outs stand apart in the source and are kept apart here.

Experiments:
LX-2 cells = experiment: Cytotoxicity, CellTiter-Glo Luminescent Cell Viability Assay
Procedure: (§1) LX-2 cells were seeded into 96 well plates in the presence of compounds and allowed to grow for 72 hours before CellTiter-Glo® Luminescent Cell Viability Assay was carried out according the manufacturer's instruction.

[1] = tested on: Human hepatic stellate cell LX-2; experiment: LX-2 Fibrosis Assay (inhibition of collagen production, TGF-b stimulated); format: cell-based
Procedure: Human hepatic stellate cell LX-2 were grown in DMEM (Invitrogen, 11960) supplied with 1% MEM Non-Essential Amino Acids (Invitrogen, 11140-050), 2% fetal bovine serum (Hyclone, SV30087.03), Penicillin (100 U/mL)-streptomycin (100 μg/mL) (Millipore, TMS-AB2-C) and 2 mM L-Glutamine (Invitrogen, 25030-001). After the cells grew in 12-well plates for 24 hours, the cell culture medium was changed to the same as above except using 0.4% fetal bovine serum. After 20 hour growth in the reduced serum medium, the cells were treated with indicated doses of compounds for 30 minutes. Subsequently, the cells were stimulated with 4 ng/mL TGF-b (R&D Systems, 240-B-002) for 48 hours. The cells were rinsed twice with DPBS before being harvested with 100 μL RIPA buffer (Sigma, R0278) supplemented with protease inhibitor cocktail (Roche, 04693132001) at 4° C. The total protein in each sample was quantified using BCA Protein Assay Kit (Pierce™, 23227) and equal amount of total protein of each sample was subject to Western blot analysis. Antibodies used were mouse anti-α-Actin (SPM332) (sc-365970), mouse anti-CTGF (E5) (sc-365970), and mouse anti-collagen α1 (3G3) (sc-293182), from Santa Cruz Biotechnologies; and mouse anti-GAPDH (6C5) (EMD Millipore, MAB374). […] As such, these compounds be used as inhibitors of fibrosis by inhibiting function of the discoidin domain receptor family.

[2] = tested on: primary tumor cells freshly isolated from PC-07-0024 patient derived xenograft (PDX) tumor model; experiment: Pancreatic cancer tumor chemosensitivity assay (TCA), anti-proliferation, PC-07-0024; format: cell-based; conditions: for IC50: Homo sapiens
Procedure: (§2) Compound 1 is compared to Gemcitabine, which is a chemotherapy drug used in various types of cancers (e.g., breast cancer, ovarian cancer, non-small cell lung cancer, pancreatic cancer, and bladder cancer). The compounds, at 30 μM, 3 fold serial dilution, are tested in primary tumor cells freshly isolated from PC-07-0024 and LU-01-0523 patient derived xenograft (PDX) tumor model using tumor chemosensitivity assay (TCA).
(§3) The study was performed as follows. Add 195 μL of assay medium into each well of the V-bottom plate; then transfer 5 μL of the stock compound solution of each concentration from the stock plate (400× stock). Add 5 μL of DMSO into the Blank and Control wells. Pipette up and down to mix well. This V-plate is designated as the 10× concentrate compound plate.
(§4) For cell viability test, add compounds as below. Then incubate the plates at 37° C., 5% CO2, 95% air and 100% relative humidity for 3 days or 6 days. For day 0 plate, add 15 μL of the DMSO-medium into the Control wells. The final DMSO concentration was 0.25%. Proceed to cell viability assay. For TCA plates, add 15 μL of the compound-medium from the 10× concentrate compound plate into the cells in 96-well assay plate according to the plate map. Add 15 μL of the DMSO-medium into the Blank and Control wells. The final DMSO concentration was 0.25%. The assay is performed similar to the protocol of the bile duct cancer study provided above.

[3] = tested on: primary tumor cells freshly isolated from LU-01-0523 patient derived xenograft (PDX) tumor model; experiment: Tumor chemosensitivity assay (TCA), anti-proliferation, LU-01-0523; format: cell-based; conditions: for IC50: Homo sapiens
Procedure: as §2, §3, §4

[4] = tested on: primary tumor cells freshly isolated from patient derived xenograft tumor model; experiment: Cholangiocarcinoma (bile duct cancer) tumor chemosensitivity assay (TCA), anti-proliferation; format: cell-based; conditions: for Max (%) / Min (%): inhibition rate
Procedure: Cholangiocarcinoma (Bile Duct Cancer)
All the compounds were tested starting from 30 μM, 3-fold serial dilution.
as §3, with “Add” for “The study was performed as follows. Add”
as §4, with “0.25%.” for “0.25%. The assay is performed similar to the protocol of the bile duct cancer study provided above.”
The procedures were performed according to the Promega CellTiter-Glo Luminescent Cell Viability Assay Kit (Promega-G7573): Thaw the CellTiter-Glo buffer and equilibrate to room temperature prior to use; Equilibrate the lyophilized CellTiter-Glo Substrate to room temperature prior to use; Transfer the entire liquid volume of CellTiter-Glo Buffer into the amber bottle containing CellTiter-Glo Substrate to reconstitute the lyophilized enzyme/substrate mixture. This forms the CellTiter-Glo Reagent; Mix by gently vortexing to obtain a homogeneous solution; Equilibrate the plate and its contents to room temperature for approximately 30 minutes; Add 75 μL (equal to the half volume of culture medium present in each well) CellTiter-Glo Reagent in each well. Cover plates with aluminum foil to protect from light; Mix contents for 2 minutes on an orbital shaker to induce cell lysis; Allow the plate to incubate at room temperature for 10 minutes to stabilize luminescent signal; and Transfer the mixture of cell and CTG buffer to the detection 96 well plate and record luminescence on the 2104 EnVision plate reader. An ATP standard curve at the same time points is prepared.
Inhibition rate (IR) of the tested compounds was determined by the following formula: IR (%)=(1−(RLU compound−RLU blank)/(RLU control−RLU blank))*100%. The inhibitions of different dose of compound were calculated in Excel file, and then were used to plot inhibition curve and evaluate related parameters, such as Min, Max and IC50. The data were interpreted by GraphPad Prism software. […]

[5] = Cytotoxicity, CellTiter-Glo Luminescent Cell Viability Assay; conditions: human, LX-2 cells
Procedure: as §1

[6] = 4 ng/mL TGF-b, 48 hours, read-out: Inhibition of Collagen Production in LX-2 Cells IC50
[7] = 72 h, read-out: Relative IC50 (μM)
[8] = 144 h, read-out: Relative IC50 (μM)

Cc1ccc2c(Nc3cccc(OC(F)(F)F)c3)noc2c1C#Cc1cnc2cccnn12 [Compound 120]
CC50 (LX-2 cells): 2410 nM | IC50 [1, 6]: 2950 nM

Nc1ccn([C@@H]2O[C@H](CO)[C@@H](O)C2(F)F)c(=O)n1 [Gemcitabine]
IC50 ([2]; 72 h, PC-07-0024, Day 3, read-out: Relative IC50): 4 µM | IC50 ([2]; 144 h, PC-07-0024, Day 6, data exclsn, read-out: Relative IC50): 0.009 µM | IC50 ([2]; 144 h, PC-07-0024, Day 6, read-out: Relative IC50): 5.93 µM | Bottom (%) ([2]; PC-07-0024, Day 3): 10.21% | Top (%) ([2]; PC-07-0024, Day 3): 46.53% | Bottom (%) ([2]; PC-07-0024, Day 6): 23.38% | Top (%) ([2]; PC-07-0024, Day 6): 72.30% | Bottom (%) ([2]; PC-07-0024, Day 6, data exclsn): 0.00% | Top (%) ([2]; PC-07-0024, Day 6, data exclsn): 30.34% | IC50 ([3]; 72 h, LU-01-0523, Day 3, read-out: Relative IC50): > 30 µM | IC50 ([3]; 144 h, LU-01-0523, Day 6, read-out: Relative IC50): 1.34 µM | Bottom (%) ([3]; LU-01-0523, Day 3): 4.79% | Top (%) ([3]; LU-01-0523, Day 3): 100.00% | Bottom (%) ([3]; LU-01-0523, Day 6): 0.00% | Top (%) ([3]; LU-01-0523, Day 6): 100.00%

Cc1ccc2c(Nc3cc(CN4CCOCC4)cc(C(F)(F)F)c3)noc2c1C#Cc1cnc2cccnn12 [Compound 111]
CC50 (LX-2 cells): > 42300 nM | IC50 [1, 6]: 1950 nM

Cc1ccc2c(Nc3cncc(C(F)(F)F)c3)noc2c1C#Cc1cnc2cccnn12 [Compound 121]
CC50 (LX-2 cells): > 40000 nM | IC50 ([4]; Day 3, read-out: IC50): > 30000 nM | IC50 ([4]; Day 6, read-out: IC50): 29100 nM | Max (%) ([4]; Day 3): 49.93% | Min (%) ([4]; Day 3): −11.42% | Max (%) ([4]; Day 6): 51.14% | Min (%) ([4]; Day 6): −18.96% | IC50 [1, 6]: 62 nM

Cc1nc(Nc2ncc(C(=O)Nc3c(C)cccc3Cl)s2)cc(N2CCN(CCO)CC2)n1 [Dasatinib, reference compound]
IC50 ([4]; Homo sapiens, 72 h, Day 3, read-out: IC50): 22400 nM | IC50 ([4]; Homo sapiens, 144 h, Day 6, read-out: IC50): 15200 nM | Max (%) ([4]; Day 3): 66.18% | Min (%) ([4]; Day 3): 8.00% | Max (%) ([4]; Day 6): 89.06% | Min (%) ([4]; Day 6): 14.03%

Cc1ccc2c(Nc3cccc(C(C)(C)C#N)c3)noc2c1C#Cc1cnc2cccnn12 [Compound 115]
CC50 (LX-2 cells): 1900 nM | IC50 [1, 6]: 502 nM

Cc1ccc2c(Nc3cc(CN4CCCC4)cc(C(F)(F)F)c3)noc2c1C#Cc1cnc2cccnn12 [Compound 113]
CC50 (LX-2 cells): 4250 nM | IC50 [1, 6]: 2580 nM

Cc1ccc2c(Nc3cc(CNC4CC4)cc(C(F)(F)F)c3)noc2c1C#Cc1cnc2cccnn12 [Compound 112]
CC50 (LX-2 cells): 1360 nM | IC50 [1, 6]: 1660 nM

Cc1ccc2c(Nc3cccc(C(F)(F)F)c3)noc2c1C#Cc1cnc2cccnn12 [Compound 1, 7-(Imidazo[1,2-b]pyridazin-3-ylethynyl)-6-methyl-N-(3-(trifluoromethyl)phenyl)benzo[d]isoxazol-3-amine]
CC50 at 72 h [5]: 3000 nM | IC50 ([4]; Homo sapiens, 72 h): > 30000 nM | IC50 ([4]; Homo sapiens, 144 h): > 30000 nM | Max (%) ([4]; Day 3): 2.56% | Min (%) ([4]; Day 3): −8.75% | Max (%) ([4]; Day 6): 2.88% | Min (%) ([4]; Day 6): −27.04% | IC50 [2, 7]: 5.7 µM | IC50 [2, 8]: 2.65 µM | Bottom (%) ([2]; PC-07-0024, Day 3): −11.36% | Top (%) ([2]; PC-07-0024, Day 3): 42.29% | Bottom (%) ([2]; PC-07-0024, Day 6): −26.68% | Top (%) ([2]; PC-07-0024, Day 6): 37.60% | IC50 ([1]; Homo sapiens, LX-2, 48 h, read-out: Inhibition of Collagen Production in LX-2 Cells IC50(nM)): 13 nM | IC50 [3, 7]: > 30 µM | IC50 [3, 8]: > 30 µM | Bottom (%) ([3]; LU-01-0523, Day 3): −5.49% | Top (%) ([3]; LU-01-0523, Day 3): 100.00% | Bottom (%) ([3]; LU-01-0523, Day 6): −16.14% | Top (%) ([3]; LU-01-0523, Day 6): 0.00%

Cc1ccc2c(Nc3cc(CN4CCOCC4)cc(C(C)(C)C#N)c3)noc2c1C#Cc1cnc2cccnn12 [Compound 117]
CC50 (LX-2 cells): > 57200 nM | IC50 [1, 6]: 160 nM
